Experimental data reported in US11339171B2, “MDM2 inhibitors” (Gan & Lee Pharmaceuticals, priority 2017, dated 2022).
“And” between values parts separate entries of the source, which are not always exact repeats. Identical values can stand only once. Like-named read-outs stand apart in the source and are kept apart here.

Key:
[1] = Pharmacokinetics in ICR mice after intravenous and intragastric administration; type: in vivo; conditions: for F*: PO 5 mg/kg vs IV 2 mg/kg, mean; for Vd: read-out: Vz; for MRT last: read-out: MRT(0-t); for MRT inf: read-out: MRT(0-∞)
Summary of the method: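 Fasted male ICR mice, n=3/route; 2 mg/kg i.v., 5 mg/kg p.o. (gavage); vehicle 5% DMSO + 40% PEG400 + 55% of 10% HP-β-CD in saline. Plasma by LC-MS/MS, range 1-2000 ng/ml. AUC, t1/2, MRT, Cmax, Tmax, F, Vz, CL derived.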

[2] = system: human osteosarcoma cell line SJSA-1; assay: Inhibition of proliferation of human osteosarcoma cell line SJSA-1 (DAPI staining, In Cell Analyzer); conditions: Homo sapiens, SJSA-1, 72 h, read-out: IC50 (nM), inhibitory activity on proliferation of human osteosarcoma cell line SJSA-1, SJSA-1, incubated 72 h
Procedure: 2.2 Experiment Preparation:
2.2.1 Preparation of a culture medium for human osteosarcoma cell line SJSA-1: RPMI1640+10% FBS+1% penicillin/streptomycin
2.2.2 Preparation of a test compound solution:
a. the test compound solution with a certain concentration was taken, and diluted with the culture medium to obtain a compound solution with a final concentration of 20 μM;
b. 200 μL of a culture medium containing 0.2% DMSO (dimethyl sulfoxide) was added into H2-H10 of a 96-well plate; 300 μl of the above solution was added into H1; and
c. 100 μL was taken out from well H1, added into H2, and mixed well; then 100 μl of the resultant solution was taken and added into H3, and dilution was carried out in sequence until H9 to obtain the 3-fold serial dilution of the test compound.
2.3 Experimental Process:
2.3.1 SJSA-1 cells were inoculated into a 96-well cell plate with black transparent bottom at 4000 cells/100 μl/well, and cultured overnight at 37° C.;
2.3.3 Fixation: the cell plate was taken out, the culture medium was removed, and 50 μL of 4% paraformaldehyde solution was added to each well to fix for 10 min;
2.3.4 50 μl of 0.1 M glycine was added to neutralize for 10 min;
2.3.5 Washing was performed with 1×PBS (phosphate buffer solution pH7.2) twice;
2.3.6 Permeabilization: 50 μL of 0.2% TritonX-100 (Triton) was added per well, and permeabilization was carried out at room temperature for 10 min;
2.3.7 Washing was performed with 1×PBS (phosphate buffer solution pH7.2) twice;
2.3.9 Washing was performed with 1×PBS (phosphate buffer solution pH7.2) for three times; and
2.3.10 Scanning and analysis were performed by In cell analyzer.
The inhibition rate of each compound at each concentration point was calculated according to the following formula, and curve fitting was performed by GraphPad Prism 6.0 software to obtain the IC50 value.

MDM2 = biological target: T1, MDM2 (Homo sapiens, UniProt Q00987); assay: Inhibition test of MDM2-P53 (GST-MDM2, Biotin-P53, Anti-GST-Tb, SA-XL665); type: binding
T1 construct: made in house
T1 sequence (Q00987 whole entry): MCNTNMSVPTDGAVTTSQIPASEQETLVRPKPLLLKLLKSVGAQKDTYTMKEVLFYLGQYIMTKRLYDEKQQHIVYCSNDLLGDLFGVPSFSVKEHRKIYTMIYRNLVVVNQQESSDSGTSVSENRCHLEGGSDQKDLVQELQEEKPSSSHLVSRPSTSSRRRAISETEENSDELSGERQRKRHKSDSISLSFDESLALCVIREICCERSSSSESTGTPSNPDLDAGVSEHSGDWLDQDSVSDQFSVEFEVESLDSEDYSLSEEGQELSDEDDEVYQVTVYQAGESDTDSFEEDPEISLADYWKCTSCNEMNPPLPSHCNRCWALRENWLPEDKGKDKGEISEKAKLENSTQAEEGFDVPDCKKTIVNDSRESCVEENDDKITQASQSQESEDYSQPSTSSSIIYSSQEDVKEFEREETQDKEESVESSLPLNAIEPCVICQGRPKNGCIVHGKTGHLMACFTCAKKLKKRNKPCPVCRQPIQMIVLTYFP
Summary of the method: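 Compounds, serially diluted 5-fold (twelve concentrations), were shaken for 90 min at 25° C with a mix of GST-MDM2 (4 nM final), Biotin-P53, anti-GST-Tb and SA-XL665. Buffer: 1×PBS, 0.1% BSA, 5 mM DTT, 1 mM AEBSF; signal read on a microplate reader.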

[3] = ICR mice, IV 2 mg/kg, individual animals 301-303, 2 mg/kg
[4] = ICR mice, PO 5 mg/kg, individual animals 401-403, 5 mg/kg
[5] = male, ICR, mouse, plasma, iv, 2 mg/kg, ICR mice, IV 2 mg/kg, individual animals 301-303, read-out: Cmax
[6] = male, ICR, mouse, plasma, iv, 2 mg/kg, ICR mice, IV 2 mg/kg, individual animals 301-303, read-out: Tmax
[7] = male, ICR, mouse, plasma, iv, 2 mg/kg, ICR mice, IV 2 mg/kg, individual animals 301-303
[8] = male, ICR, mouse, plasma, iv, 2 mg/kg, ICR mice, IV 2 mg/kg, mean of 3 animals
[9] = male, ICR, mouse, plasma, iv, 2 mg/kg, ICR mice, IV 2 mg/kg, mean of 3 animals, read-out: AUC(0-t)
[10] = male, ICR, mouse, plasma, iv, 2 mg/kg, ICR mice, IV 2 mg/kg, mean of 3 animals, read-out: Cmax
[11] = male, ICR, mouse, plasma, iv, 2 mg/kg, ICR mice, IV 2 mg/kg, mean of 3 animals, read-out: Tmax
[12] = male, ICR, mouse, plasma, iv, 2 mg/kg, ICR mice, IV 2 mg/kg, mean of 3 animals, read-out: t1/2 (converted)
[13] = male, ICR, mouse, plasma, po, 5 mg/kg, ICR mice, PO 5 mg/kg, individual animals 401-403
[14] = male, ICR, mouse, plasma, po, 5 mg/kg, ICR mice, PO 5 mg/kg, individual animals 401-403, read-out: AUC(0-t)
[15] = male, ICR, mouse, plasma, po, 5 mg/kg, ICR mice, PO 5 mg/kg, individual animals 401-403, read-out: Cmax
[16] = male, ICR, mouse, plasma, po, 5 mg/kg, ICR mice, PO 5 mg/kg, individual animals 401-403, read-out: Tmax
[17] = male, ICR, mouse, plasma, po, 5 mg/kg, ICR mice, PO 5 mg/kg, individual animals 401-403, read-out: t1/2 (converted)
[18] = male, ICR, mouse, plasma, po, 5 mg/kg, ICR mice, PO 5 mg/kg, mean of 3 animals
[19] = male, ICR, mouse, plasma, po, 5 mg/kg, ICR mice, PO 5 mg/kg, mean of 3 animals, read-out: AUC(0-t)
[20] = male, ICR, mouse, plasma, po, 5 mg/kg, ICR mice, PO 5 mg/kg, mean of 3 animals, read-out: Cmax
[21] = male, ICR, mouse, plasma, po, 5 mg/kg, ICR mice, PO 5 mg/kg, mean of 3 animals, read-out: Tmax
[22] = male, ICR, mouse, plasma, po, 5 mg/kg, ICR mice, PO 5 mg/kg, mean of 3 animals, read-out: t1/2 (converted)
[23] = male, ICR, mouse, plasma, po, 5 mg/kg, oral intragastric administration 5 mg/kg, read-out: AUC0-t

COc1nc(OCCF)ncc1-c1nc2c(n1C(C)C)[C@@]1(C(=O)Nc3cc(Cl)ccc31)N(c1cc(Cl)ccc1C)C2=O [Example S-140, (S)-6-chloro-5′-(5-chloro-2-methylphenyl)-2′-(2-(2-fluoroethoxy)-4-methoxypyrimidin-5-yl)-3′-isopropyl-3′H-spiro[dihydroindole-3,4′-pyrrolo[3,4-d]imidazole]-2,6′(5′H)-dione]
AUC(0-t) [1, 3]: 9144.58 ng·h/mL and 19456.40 ng·h/mL and 11628.12 ng·h/mL
CL [1, 3]: 3.37 mL/min/kg and 1.67 mL/min/kg and 2.26 mL/min/kg
Cmax [1, 3]: 6627.89 ng/mL and 5215.16 ng/mL
MRT(0-t) [1, 3]: 1.58 h and 3.73 h and 1.94 h
Vz [1, 3]: 0.61 L/kg and 0.52 L/kg
t1/2 [1, 3]: 1.70 h and 4.19 h and 2.67 h
F* ([1]; ICR mice): 72.11%
AUC(0-t) [1, 4]: 26053.96 ng·h/mL and 23914.34 ng·h/mL
AUC(0-∞) [1, 4]: 26994.24 ng·h/mL and 26699.24 ng·h/mL
Cmax [1, 4]: 5947.01 ng/mL and 4972.85 ng/mL
MRT(0-t) [1, 4]: 2.67 h
MRT(0-∞) [1, 4]: 2.93 h and 3.85 h
Tmax [1, 4]: 1.00 h
t1/2 [1, 4]: 1.54 h and 2.38 h
Cmax [1, 5]: 4540 ng/mL
Tmax [1, 6]: 0.08 h
Vd [1, 7]: 0.5 L/kg
clearance [1, 8]: 2.43 mL/min/kg
AUC(0-t) [1, 9]: 13400 ng·h/mL
Cmax [1, 10]: 5460 ng/mL
MRT last [1, 8]: 2.42 h
Tmax [1, 11]: 0.083 h
Vd [1, 8]: 0.54 L/kg
half-life [1, 12]: 2.86 h
AUC(0-t) ([1]; male, ICR, mouse, plasma, iv, 2 mg/kg, ICR mice, IV 2 mg/kg, mean of 3 animals, second AUC column (c5) of Table 26, read-out: AUC(0-t)): 14900 ng·h/mL
MRT last ([1]; male, ICR, mouse, plasma, iv, 2 mg/kg, ICR mice, IV 2 mg/kg, mean of 3 animals, second MRT column (c7) of Table 26): 3.36 h
AUC(0-inf) [1, 13]: 24700 ng·h/mL
AUC(0-t) [1, 14]: 22600 ng·h/mL
Cmax [1, 15]: 4250 ng/mL
MRT last [1, 13]: 2.97 h
MRT inf [1, 13]: 3.69 h
Tmax [1, 16]: 2 h
half-life [1, 17]: 2.19 h
AUC(0-inf) [1, 18]: 26100 ng·h/mL
AUC(0-t) [1, 19]: 24200 ng·h/mL
Cmax [1, 20]: 5060 ng/mL
MRT last [1, 18]: 2.87 h
MRT inf [1, 18]: 3.49 h
Tmax [1, 21]: 1.67 h
half-life [1, 22]: 2.04 h
AUC(0-t) [1, 23]: 24200 ng·h/mL
half-life ([1]; male, ICR, mouse, plasma, po, 5 mg/kg, oral intragastric administration 5 mg/kg, read-out: half-life (converted)): 2.04 h
IC50 [2]: 81.5 nM
IC50 (MDM2): 1.06 nM

COc1nc(C2CC2)ncc1-c1nc2c(n1C(C)C)[C@@]1(C(=O)Nc3cc(Cl)ccc31)N(c1cc(Cl)cnc1C)C2=O [Example S-159, (S)-6-chloro-5′-(5-chloro-2-methylpyridin-3-yl)-2′-(2-cyclopropyl-4-methoxypyrimidin-5-yl)-3′-isopropyl-3′H-spiro[dihydroindole-3,4′-pyrrolo[3,4-d]imidazole]-2,6′(5′H)-dione]
AUC(0-t) [1, 3]: 4456.51 ng·h/mL and 4501.92 ng·h/mL
Cmax [1, 3]: 2591.90 ng/mL and 2457.53 ng/mL
MRT(0-t) [1, 3]: 1.45 h and 1.52 h
MRT(0-∞) [1, 3]: 2.00 h and 2.19 h
Vz [1, 3]: 1.05 L/kg
t1/2 [1, 3]: 1.75 h
F* ([1]; ICR mice): 52.53%
AUC(0-t) [1, 4]: 5902.77 ng·h/mL and 6839.45 ng·h/mL
AUC(0-∞) [1, 4]: 6003.28 ng·h/mL and 7052.50 ng·h/mL
Cmax [1, 4]: 1853.01 ng/mL and 1794.96 ng/mL
MRT(0-t) [1, 4]: 2.27 h and 2.45 h
MRT(0-∞) [1, 4]: 2.40 h and 2.68 h
t1/2 [1, 4]: 1.28 h and 1.47 h
AUC(0-inf) [1, 7]: 3720 ng·h/mL
clearance [1, 7]: 17.9 mL/min/kg
AUC(0-t) ([1]; male, ICR, mouse, plasma, iv, 2 mg/kg, ICR mice, IV 2 mg/kg, individual animals 301-303, read-out: AUC(0-t)): 3600 ng·h/mL
Cmax [1, 5]: 2540 ng/mL
MRT last [1, 7]: 1.23 h
MRT inf [1, 7]: 1.45 h
Tmax [1, 6]: 0.08 h
Vd [1, 7]: 0.95 L/kg
half-life ([1]; male, ICR, mouse, plasma, iv, 2 mg/kg, ICR mice, IV 2 mg/kg, individual animals 301-303, read-out: t1/2 (converted)): 1.22 h
AUC(0-inf) [1, 8]: 4500 ng·h/mL
clearance [1, 8]: 15.1 mL/min/kg
AUC(0-t) [1, 9]: 4180 ng·h/mL
Cmax [1, 10]: 2530 ng/mL
MRT last [1, 8]: 1.4 h
MRT inf [1, 8]: 1.88 h
Tmax [1, 11]: 0.083 h
Vd [1, 8]: 1.02 L/kg
half-life [1, 12]: 1.61 h
AUC(0-inf) [1, 13]: 3770 ng·h/mL
AUC(0-t) [1, 14]: 3740 ng·h/mL
Cmax [1, 15]: 1440 ng/mL
MRT last [1, 13]: 1.9 h
MRT inf [1, 13]: 1.95 h
Tmax [1, 16]: 1 h
half-life [1, 17]: 1.03 h
AUC(0-inf) [1, 18]: 5610 ng·h/mL
AUC(0-t) [1, 19]: 5500 ng·h/mL
Cmax [1, 20]: 1700 ng/mL
MRT last [1, 18]: 2.21 h
MRT inf [1, 18]: 2.34 h
Tmax [1, 21]: 1 h
half-life [1, 22]: 1.26 h
AUC(0-t) [1, 23]: 5500 ng·h/mL
IC50 [2]: 34.2 nM
IC50 (MDM2): 2.8 nM
